According to the supplement of paper PMC13380429:

What was measured:
Calu-3 [1] = experiment: relative viability EC50 (midpoint between 100% and the lowest measured viability); higher = less toxic; conditions: 72 h
U2OS [2] = experiment: as above; conditions: 72 h
Vero E6 [3] = experiment: as above; conditions: 72 h
[4] = test system: A549-ACE2 infected with SARS-CoV-2; experiment: morphology score (similarity to uninfected cells); higher = more like uninfected cells; conditions: 24 h
A549-ACE2 [5] = experiment: phospholipidosis EC50; higher = less potent phospholipidosis inducer
[6] = test system: A549-ACE2 infected with SARS-CoV-2; experiment: cell count relative to DMSO; higher = less toxic; conditions: 24 h
[7] = test system: A549-ACE2 infected with SARS-CoV-2; experiment: SARS-CoV-2 infection rate relative to DMSO; higher = more infection; conditions: 24 h
Calu-3 [8] = experiment: drug sensitivity score (DSS) for viability; higher = more toxic; extreme values may be limits of the assay; conditions: 72 h
HepG2 [9] = experiment: as above; conditions: 72 h
Caco-2 [10] = experiment: as above; conditions: 72 h
U2OS [11] = experiment: as above; conditions: 72 h
Vero E6 [12] = experiment: as above; conditions: 72 h
A549-ACE2 [13] = experiment: drug-induced phospholipidosis relative to tamoxifen; higher = more phospholipidosis
Calu-3 [14] = experiment: cell viability relative to DMSO; higher = less toxic; conditions: 72 h
HepG2 [15] = experiment: as above; conditions: 72 h
Caco-2 [16] = experiment: as above; conditions: 72 h
U2OS [17] = experiment: as above; conditions: 72 h
Vero E6 [18] = experiment: as above; conditions: 72 h
HepG2 [19] = experiment: relative viability EC50 (midpoint between 100% and the lowest measured viability); higher = less toxic; conditions: 72 h
Caco-2 [20] = experiment: as above; conditions: 72 h

C[C@@H](NCCCc1cccc(C(F)(F)F)c1)c1cccc2ccccc12 [cinacalcet]
Conditions	drug sensitivity score	relative viability EC50 [µM]
Caco-2 [10]	2.9	–
Calu-3 [1]	–	3.06
Calu-3 [8]	5.3	–
HepG2 [9]	2.2	–
U2OS [2]	–	> 10
U2OS [11]	0	–
Vero E6 [3]	–	> 10
Vero E6 [12]	0.4	–

Conditions	SARS-CoV-2 infection rate [%]	cell count [%]	cell viability [%]	morphology score	phospholipidosis EC50 [µM]
A549-ACE2 [5], 24 h	–	–	–	–	2.77
A549-ACE2 [5], 48 h	–	–	–	–	4.97
A549-ACE2 [5], 72 h	–	–	–	–	5.11
Caco-2 [16], 1 nM	–	–	99.8	–	–
Caco-2 [16], 10 nM	–	–	96.4	–	–
Caco-2 [16], 100 nM	–	–	100	–	–
Caco-2 [16], 1000 nM	–	–	89.1	–	–
Caco-2 [16], 10000 nM	–	–	68.4	–	–
Calu-3 [14], 1 nM	–	–	109	–	–
Calu-3 [14], 10 nM	–	–	109	–	–
Calu-3 [14], 100 nM	–	–	101	–	–
Calu-3 [14], 1000 nM	–	–	98.6	–	–
Calu-3 [14], 10000 nM	–	–	7.3	–	–
HepG2 [15], 1 nM	–	–	98	–	–
HepG2 [15], 10 nM	–	–	102	–	–
HepG2 [15], 100 nM	–	–	87.9	–	–
HepG2 [15], 1000 nM	–	–	96.4	–	–
HepG2 [15], 10000 nM	–	–	66.3	–	–
U2OS [17], 1 nM	–	–	106	–	–
U2OS [17], 10 nM	–	–	95.8	–	–
U2OS [17], 100 nM	–	–	103	–	–
U2OS [17], 1000 nM	–	–	99.6	–	–
U2OS [17], 10000 nM	–	–	89.4	–	–
Vero E6 [18], 1 nM	–	–	102	–	–
Vero E6 [18], 10 nM	–	–	106	–	–
Vero E6 [18], 100 nM	–	–	104	–	–
Vero E6 [18], 1000 nM	–	–	101	–	–
Vero E6 [18], 10000 nM	–	–	82.2	–	–
[4], 0.3 µM	–	–	–	0.09	–
[4], 3 µM	–	–	–	0.67	–
[4], 10 µM	–	–	–	0.55	–
[6], 0.3 µM	–	96	–	–	–
[6], 3 µM	–	103	–	–	–
[6], 10 µM	–	87	–	–	–
[7], 0.3 µM	93	–	–	–	–
[7], 3 µM	59	–	–	–	–
[7], 10 µM	54	–	–	–	–

drug-induced phospholipidosis [%], A549-ACE2 [13]
Conditions	0.3 µM	0.833333 µM	3.33333 µM	6.66667 µM	10 µM	30 µM
24 h	3.21	8.87	65.6	89.9	102	53.7
48 h	2.84	6.54	45.1	87.9	107	–
72 h	4.18	6.97	37.3	82.3	102	–

C=C1C(=O)O[C@@H]2C[C@@]3(C)CCC[C@H](C)C3=C[C@H]12 [alantolactone]
Conditions	drug sensitivity score	relative viability EC50 [µM]
Caco-2 [10]	0	–
Caco-2 [20]	–	> 10
HepG2 [9]	0	–
HepG2 [19]	–	> 10
U2OS [2]	–	> 10
U2OS [11]	0	–
Vero E6 [3]	–	> 10
Vero E6 [12]	0	–

Conditions	SARS-CoV-2 infection rate, [7] [%]	cell count, [6] [%]	cell viability, Caco-2 [16] [%]	cell viability, HepG2 [15] [%]	cell viability, U2OS [17] [%]	cell viability, Vero E6 [18] [%]	morphology score, [4]
1 nM	–	–	94.9	94.8	99.2	94.7	–
10 nM	–	–	99	102	96.4	95.8	–
100 nM	–	–	101	106	101	95.8	–
0.3 µM	104	100	–	–	–	–	0.1
1000 nM	–	–	99.8	104	96.4	96.8	–
3 µM	92	98	–	–	–	–	-0.12
10 µM	91	97	–	–	–	–	-0.07
10000 nM	–	–	89.7	117	96.6	101	–
30 µM	35	9	–	–	–	–	0.21

drug-induced phospholipidosis [%], A549-ACE2 [13]
Conditions	0.3 µM	0.833333 µM	3.33333 µM	6.66667 µM	10 µM	30 µM
24 h	0.44	-0.52	-2.33	-1.69	-1.05	3.99
48 h	0.11	-0.81	-1.92	-1	0.04	3.39
72 h	2.31	-0.225	-1.83	-1.58	0.848	3.9

CC(C)C[C@@H](C=O)NC(=O)[C@H](CC(C)C)NC(=O)[C@H](CC(C)C)NC(=O)OCc1ccccc1 [MG-132]
Conditions	drug sensitivity score	relative viability EC50 [µM]
Caco-2 [10]	15.8	–
Caco-2 [20]	–	0.391
Calu-3 [1]	–	0.578
Calu-3 [8]	14.2	–
HepG2 [9]	14.4	–
HepG2 [19]	–	0.611
U2OS [2]	–	0.377
U2OS [11]	17	–
Vero E6 [3]	–	0.94
Vero E6 [12]	11.6	–

Conditions	SARS-CoV-2 infection rate, [7] [%]	cell count, [6] [%]	cell viability, Caco-2 [16] [%]	cell viability, Calu-3 [14] [%]	cell viability, HepG2 [15] [%]	cell viability, U2OS [17] [%]	cell viability, Vero E6 [18] [%]	morphology score, [4]
1 nM	–	–	99.9	96.6	102	99.8	93.1	–
10 nM	–	–	103	113	97	99.7	100	–
100 nM	–	–	94.5	102	107	95.7	104	–
0.3 µM	38	109	–	–	–	–	–	0.7
1000 nM	–	–	17.4	23	22.1	9.3	48.5	–
3 µM	9	37	–	–	–	–	–	0.33
10 µM	20	22	–	–	–	–	–	0.22
10000 nM	–	–	5.2	3.7	-0.1	-0.1	4.4	–
30 µM	30	14	–	–	–	–	–	0.18

A549-ACE2 [13], 24 h
Conditions	drug-induced phospholipidosis [%]
0.3 µM	21.5
0.833333 µM	10.6
